The source of these data is patent US20080286340A1, “Buffered nicotine containing products” (priority 2007, published 2008).

For data set [1] the following is noted: pKa falling in interval 8-9.6; cited from earlier work.
The conditions of data set [2]: cited from earlier work.
For data set [3] the following is noted: smoking a cigarette; cited from earlier work.
The conditions of data set [4]: at 37° C.; cited from earlier work.

Like-named read-outs stand apart in the source and are kept apart here.

For the compound `N[C@@H](Cc1ccccc1)C(=O)O` [Phenylalanine], in data set [1], the “pKa value (in interval 8-9.6)” value was 9.09. Also, the Solubility in water in data set [2] (water) was 27.9 g/kg.

With `NC(=O)C[C@H](N)C(=O)O` [Aspargine], the “pKa value (in interval 8-9.6)” value in data set [1] is listed as 8.73.

For the compound `NCCCC[C@H](N)C(=O)O` [Lysine], the “pKa value (in interval 8-9.6)” value in data set [1] is reported as 9.16. The Solubility in water entry in data set [2] is “Very soluble^a)b)”.

As to `N[C@@H](Cc1c[nH]cn1)C(=O)O` [Histidine], the Solubility in water in data set [2] was 43.5 g/kg.

Turning to `CSCC[C@H](N)C(=O)O` [Methionine], the Solubility in water in data set [2] is listed as 56 g/kg.

For the compound `NC(=O)CC[C@H](N)C(=O)O` [Glutamine], the Solubility in water in data set [2] (water) is 42 g/kg.

`N[C@@H](CCC(=O)O)C(=O)O` [Glutamic acid]: the “pKa value (in interval 8-9.6)” value in data set [1] is 9.58.

As to `CN1CCCC1c1cccnc1` (centres unmarked) [nicotine, 3-(1-methyl-2-pyrrolidinyl)pyridine], the “time until nicotine reaches the brain after inhalation” value in data set [3] is on record as “around ten”. In addition, in data set [4], the “pKa (acid-base equilibrium of nicotine)” value was about 7.8. Further, the “nicotine in the non-charged base form” value (assuming a pH of the saliva of 6.8) is reported as “about 10%”. Moreover, the “nicotine in the free readily absorbable base form” value (at a pH of 9.0) is “more than 90%”.

Turning to `CC(C)C[C@H](N)C(=O)O` [Leucine], in data set [2] (water), the Solubility in water is recorded as 22.0 g/kg.

On to `N[C@@H](CS(=O)(=O)O)C(=O)O` [Cysteic acid], for which the Solubility in water entry in data set [2] (water) is reported as “Very soluble”.

Turning to `CC(C)[C@H](N)C(=O)O` [Valine], in data set [2] (water), the Solubility in water is on record as 88.5 g/kg.

Turning to `CC[C@H](C)[C@H](N)C(=O)O` [Isoleucine], the Solubility in water in data set [2] (water) is 34.2 g/kg.
